The text below walks through data of US12240862B2, “Inhibitors of peptidylarginine deiminases” (Gilead Sciences, Inc., priority 2020, dated 2025).

The structures appear in SMILES notation.

The test deals with T1, human PAD4 (Homo sapiens, UniProt Q9UM07).
T1 construct: human PAD4 (NM_012387), A2P663, was PCR amplified; His-SUMO (N, cleaved yes); made in house; host or cells: E. coli BL21(DE3)
Description: In vitro PAD4 BAEE biochemical assay. The following applies: human PAD4, BAEE substrate; 5 nM PAD4, 2 mM calcium chloride, 3 mM BAEE; geometric mean of multiple experiments. The essentials:
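Ammonia generated from BAEE serves as the readout, measured by o-phthalaldehyde after EDTA termination. Final conditions: 5 nM human PAD4 (SUMO tag cleaved), 2 mM CaCl2, 3 mM BAEE, pH 7.6 MOPS buffer, 25 °C for 2 h following a 30-min compound preincubation.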

T1 sequence (Q9UM07 2-663): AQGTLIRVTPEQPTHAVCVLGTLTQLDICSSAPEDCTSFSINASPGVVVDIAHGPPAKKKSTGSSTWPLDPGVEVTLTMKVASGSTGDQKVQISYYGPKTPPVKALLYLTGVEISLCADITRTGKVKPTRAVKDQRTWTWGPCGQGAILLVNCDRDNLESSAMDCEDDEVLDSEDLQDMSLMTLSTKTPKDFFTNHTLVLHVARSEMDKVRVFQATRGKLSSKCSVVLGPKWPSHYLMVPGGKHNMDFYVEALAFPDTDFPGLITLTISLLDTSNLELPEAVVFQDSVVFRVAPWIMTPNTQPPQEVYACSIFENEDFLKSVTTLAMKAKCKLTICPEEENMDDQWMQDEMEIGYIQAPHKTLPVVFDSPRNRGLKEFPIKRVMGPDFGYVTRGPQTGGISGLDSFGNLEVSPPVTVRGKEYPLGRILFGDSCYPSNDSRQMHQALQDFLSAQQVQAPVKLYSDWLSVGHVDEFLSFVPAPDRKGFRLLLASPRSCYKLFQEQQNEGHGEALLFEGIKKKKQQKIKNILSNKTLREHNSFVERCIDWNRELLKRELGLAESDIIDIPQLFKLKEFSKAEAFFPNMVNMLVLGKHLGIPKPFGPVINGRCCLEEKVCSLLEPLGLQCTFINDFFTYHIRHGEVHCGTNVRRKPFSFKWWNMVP

By IC50 is commonly meant the concentration that gives 50% inhibition. Regarding `COc1cc(C(=O)N2[C@H]3CC[C@@H]2[C@H](N)C3)cc2nc(-c3cc4ccc(C(C)C#N)nc4n3CC3CC3)c(C)n12` (stereo partly shown) [Example 568, 2-[2-[7-[(1~{R},2~{R}, 4~{S})-2-amino-7-azabicyclo[2.2.1]heptane-7-carbonyl]-5-methoxy-3-methylimidazo[1,2-a]pyridin-2-yl]-1-(cyclopropylmethyl)pyrrolo [2,3-b]pyridin-6-yl] propanenitrile], the half-maximal inhibitory concentration (IC50) is 133 nM.
For the molecule `COc1cc(C(=O)N2[C@H]3CC[C@@H]2[C@H](N)C3)cc2nc(-c3cc4ccc(C(O)C(F)(F)F)nc4n3CC3CC3)c(C)n12` (stereo partly shown) [Example 569, [(1~{R},2~{R},4~{S})-2-amino-7-azabicyclo [2.2.1]heptan-7-yl]-[2-[1-(cyclopropylmethyl)-6-(2,2,2-trifluoro-1-hydroxyethyl)pyrrolo [2,3-b]pyridin-2-yl]-5-methoxy-3-methylimidazo[1,2-a]pyridin-7-yl]methanone], the half-inhibitory concentration (IC50) came out at 145 nM.
With `COc1cc(C(=O)N2[C@H]3CC[C@@H]2[C@H](N)C3)cc2nc(-c3cc4ccc(C(C)(C)N)nc4n3CC3CC3)c(C)n12` [Example 570, [(1~{R},2~{R},4~{S})-2-amino-7-azabicyclo [2.2.1]heptan-7-yl]-[2-[6-(2-aminopropan-2-yl)-1-(cyclopropylmethyl)pyrrolo [2,3-b]pyridin-2-yl]-5-methoxy-3-methylimidazo[1,2-a]pyridin-7-yl]methanone], the IC50 is 227 nM.
As for `COc1cc(C(=O)N2[C@H]3CC[C@@H]2[C@H](N)C3)cc2nc(-c3cc4ccc(C(C)(O)C(C)C)nc4n3CC3CC3)c(C)n12` (stereo partly shown) [Example 571, [(1~{R},2~{R},4~{S})-2-amino-7-azabicyclo [2.2.1]heptan-7-yl]-[2-[1-(cyclopropylmethyl)-6-(2-hydroxy-3-methylbutan-2-yl)pyrrolo[2,3-b]pyridin-2-yl]-5-methoxy-3-methylimidazo[1,2-a]pyridin-7-yl]methanone], the figure is 465 nM; as for `CCC(C)(O)c1ccc2cc(-c3nc4cc(C(=O)N5[C@H]6CC[C@@H]5[C@H](N)C6)cc(OC)n4c3C)n(CC3CC3)c2n1` (stereo partly shown) [Example 572, [(1~{R},2~{R},4~{S})-2-amino-7-azabicyclo [2.2.1]heptan-7-yl]-[2-[1-(cyclopropylmethyl)-6-(2-hydroxybutan-2-yl)pyrrolo [2,3-b]pyridin-2-yl]-5-methoxy-3-methylimidazo[1,2-a]pyridin-7-yl]methanone], 152 nM; as for `COc1cc(C(=O)N2[C@H]3CC[C@@H]2[C@H](N)C3)cc2nc(-c3cc4ccc(C(C)(O)c5ccccc5)nc4n3CC3CC3)c(C)n12` (stereo partly shown) [Example 573, [(1~{R},2~{R},4~{S})-2-amino-7-azabicyclo [2.2.1]heptan-7-yl]-[2-[1-(cyclopropylmethyl)-6-(1-hydroxy-1-phenylethyl)pyrrolo[2,3-b]pyridin-2-yl]-5-methoxy-3-methylimidazo[1,2-a]pyridin-7-yl]methanone], 1000 nM.
As for `COc1cc(C(=O)N2[C@H]3CC[C@@H]2[C@H](N)C3)cc2nc(-c3cc4ccc(C(C)(C)O)nc4n3CC3CC3)c(C)n12` [Example 574, [(1~{R},2~{R},4~{S})-2-amino-7-azabicyclo [2.2.1]heptan-7-yl]-[2-[1-(cyclopropylmethyl)-6-(2-hydroxypropan-2-yl)pyrrolo [2,3-b]pyridin-2-yl]-5-methoxy-3-methylimidazo[1,2-a]pyridin-7-yl]methanone], the figure is 110 nM.
As for `COc1cc(C(=O)N2[C@H]3CC[C@@H]2[C@H](N)C3)cc2nc(-c3cc4ccc(-c5cccnc5C)nc4n3CC3CC3)c(C)n12` [Example 575, ((1R,2R,4S)-2-amino-7-azabicyclo[2.2.1]heptan-7-yl)(2-(1-(cyclopropylmethyl)-6-(2-methylpyridin-3-yl)-1H-pyrrolo[2,3-b]pyridin-2-yl)-5-methoxy-3-methylimidazo[1,2-a]pyridin-7-yl)methanone], the figure is 130 nM.
With `CCc1ccc2cc(-c3nc4cc(C(=O)N5CCC[C@@H](N)C5)cc(OC)n4c3C3CCC3)n(CC3CC3)c2n1` [Example 576, [(3~{R})-3-aminopiperidin-1-yl]-[3-cyclobutyl-2-[1-(cyclopropylmethyl)-6-ethylpyrrolo[2,3-b]pyridin-2-yl]-5-methoxyimidazo [1,2-a]pyridin-7-yl]methanone], the IC50 was 2150 nM.
As for `CCc1ccc2cc(-c3nc4cc(C(=O)N5[C@H]6CC[C@@H]5[C@H](N)C6)cc(OC)n4c3C3CCC3)n(CC3CC3)c2n1` [Example 577, [(1~{R},2~{R},4~{S})-2-amino-7-azabicyclo [2.2.1]heptan-7-yl]-[3-cyclobutyl-2-[1-(cyclopropylmethyl)-6-ethylpyrrolo[2,3-b]pyridin-2-yl]-5-methoxyimidazo [1,2-a]pyridin-7-yl]methanone], the figure is 996 nM; as for `CCc1ccc2cc(-c3nc4cc(C(=O)N5[C@H]6CC[C@@H]5[C@H](N)C6)cc(OC)n4c3C3CC3)n(CC3CC3)c2n1` [Example 578, [(1~{R},2~{R},4~{S})-2-amino-7-azabicyclo [2.2.1]heptan-7-yl]-[3-cyclopropyl-2-[1-(cyclopropylmethyl)-6-ethylpyrrolo[2,3-b]pyridin-2-yl]-5-methoxyimidazo [1,2-a]pyridin-7-yl]methanone], 346 nM; as for `CCc1ccc2cc(-c3nc4cc(C(=O)N5CC[C@@H](OC)[C@@H](N)C5)cc(OC)n4c3C)n(CC3CC3)c2n1` [Example 579, [(3~{S},4~{R})-3-amino-4-methoxypiperidin-1-yl]-[2-[1-(cyclopropylmethyl)-6-ethylpyrrolo[2,3-b]pyridin-2-yl]-5-methoxy-3-methylimidazo[1,2-a]pyridin-7-yl]methanone], 412 nM.
In the case of `CCc1ccc2cc(-c3nc4cc(C(=O)N5CCCC(NCCO)C5)cc(OC)n4c3C)n(CC3CC3)c2n1` (stereo not shown) [Example 581, [2-[1-(cyclopropylmethyl)-6-ethylpyrrolo[2,3-b]pyridin-2-yl]-5-methoxy-3-methylimidazo[1,2-a]pyridin-7-yl]-[3-(2-hydroxyethylamino)piperidin-1-yl]methanone], the IC50 came to 23000 nM.
On to `CCc1ccc2cc(-c3nc4cc(C(=O)N5CCC6CCNC6C5)cc(OC)n4c3C)n(CC3CC3)c2n1` (stereo not shown) [Example 583, 1,2,3,3~{a},4,5,7,7~{a}-octahydropyrrolo[2,3-c] pyridin-6-yl-[2-[1-(cyclopropylmethyl)-6-ethylpyrrolo[2,3-b]pyridin-2-yl]-5-methoxy-3-methylimidazo[1,2-a]pyridin-7-yl]methanone], for which the IC50 worked out at 535 nM.
As for `CCc1ccc2cc(-c3nc4cc(C(=O)N5[C@H]6CC[C@@H]5[C@H](N)C6)cc(OC)n4c3C)n(CC3CC3)c2n1` [Example 584, [(1~{R},2~{R},4~{S})-2-amino-7-azabicyclo [2.2.1]heptan-7-yl]-[2-[1-(cyclopropylmethyl)-6-ethylpyrrolo[2,3-b]pyridin-2-yl]-5-methoxy-3-methylimidazo[1,2-a]pyridin-7-yl]methanone], the figure is 84.5 nM.
As for `CCc1ccc2cc(-c3nc4cc(C(=O)N5CCC[C@@H](N)C5)cc(OC)n4c3C3CC3)n(CC3CC3)c2n1` [Example 585, [(3~{R})-3-aminopiperidin-1-yl]-[3-cyclopropyl-2-[1-(cyclopropylmethyl)-6-ethylpyrrolo[2,3-b]pyridin-2-yl]-5-methoxyimidazo [1,2-a]pyridin-7-yl]methanone], the figure is 174 nM.
In the case of `CCc1ccc2cc(-c3nc4cc(C(=O)N5CCC[C@@H](N)C5)cc(OC)n4c3C)n(CC3CC3)c2c1F` [Example 586, [(3~{R})-3-aminopiperidin-1-yl]-[2-[1-(cyclopropylmethyl)-6-ethyl-7-fluoroindol-2-yl]-5-methoxy-3-methylimidazo [1,2-a]pyridin-7-yl]methanone], the half-maximal inhibitory concentration (IC50) came to 3210 nM.
As to `CCc1ccc2cc(-c3nc4cc(C(=O)N5C[C@]6(N)CC[C@H]5C6)cc(OC)n4c3C)n(CC3CC3)c2n1` [Example 587, [(1~{S},4~{S})-4-amino-2-azabicyclo[2.2.1]heptan-2-yl]-[2-[1-(cyclopropylmethyl)-6-ethylpyrrolo[2,3-b]pyridin-2-yl]-5-methoxy-3-methylimidazo[1,2-a]pyridin-7-yl]methanone], the IC50 worked out at 4460 nM.
As for `CCc1ccc2cc(-c3nc4cc(C(=O)N5C[C@@]6(N)CC[C@@H]5C6)cc(OC)n4c3C)n(CC3CC3)c2n1` [Example 588, [(1~{R},4~{R})-4-amino-2-azabicyclo[2.2.1]heptan-2-yl]-[2-[1-(cyclopropylmethyl)-6-ethylpyrrolo[2,3-b]pyridin-2-yl]-5-methoxy-3-methylimidazo[1,2-a]pyridin-7-yl]methanone], the figure is 10600 nM.
To `CCc1cc2c(cc1F)cc(-c1nc3cc(C(=O)N4CCC[C@@H](N)C4)cc(OC)n3c1C)n2CC1CC1` [Example 589, [(3~{R})-3-aminopiperidin-1-yl]-[2-[1-(cyclopropylmethyl)-6-ethyl-5-fluoroindol-2-yl]-5-methoxy-3-methylimidazo[1,2-a]pyridin-7-yl]methanone] belongs 2680 nM; to `COc1cc(C(=O)N2CCC[C@@H](N)C2)cc2nc(-c3cc4cc(F)c(Cl)cc4n3CC3CC3)c(C)n12` [Example 590, [(3~{R})-3-aminopiperidin-1-yl]-[2-[6-chloro-1-(cyclopropylmethyl)-5-fluoroindol-2-yl]-5-methoxy-3-methylimidazo[1,2-a]pyridin-7-yl]methanone], 9820 nM.
Consider `CCc1ccc2cc(-c3nc4cc(C(=O)N5CC[C@H]6OCCN[C@H]6C5)cc(OC)n4c3C)n(CC3CC3)c2n1` [Example 591, [(4~{a}~{S},8~{a}~{R})-2,3,4,4~{a},5,7,8,8~{a}-octahydropyrido[4,3-b] [1,4]oxazin-6-yl]-[2-[1-(cyclopropylmethyl)-6-ethylpyrrolo[2,3-b]pyridin-2-yl]-5-methoxy-3-methylimidazo[1,2-a]pyridin-7-yl]methanone], for which the 50% inhibitory concentration (IC50) was found to be 936 nM.
